Several values for one entry are separate records, joined by “and”; a condition that tells them apart may be missing. Identical values can stand only once.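 Five concentrations, 48 hours, 96-well plates. Abbreviation: GI50, concentration required for 50% inhibition of growth.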 Activity calls are given as the source filed them. Rule as the data show it: active = GI50 up to about 1.1 µM and inactive = higher.
How the values were obtained:
Assay in all cases: NCI anticancer screen, dose series, 48 h
A498 = tested on: A498
BT-549 = tested on: BT-549
COLO 205 = tested on: COLO 205
EKVX = tested on: EKVX
HCC 2998 = tested on: HCC 2998
MDA-MB-231 = tested on: MDA-MB-231
MDA-MB-435 = tested on: MDA-MB-435
NCI-H226 = tested on: NCI-H226
OVCAR-3 = tested on: OVCAR-3
OVCAR-4 = tested on: OVCAR-4
OVCAR-5 = tested on: OVCAR-5
OVCAR-8 = tested on: OVCAR-8
RPMI-8226 = tested on: RPMI-8226
SK-MEL-28 = tested on: SK-MEL-28
SNB-19 = tested on: SNB-19
SW-620 = tested on: SW-620
T47D = tested on: T47D
U-251 = tested on: U-251
UACC-257 = tested on: UACC-257
SK-MEL-5 = tested on: SK-MEL-5

Measured: GI50

NC(=S)N/N=C1\CCc2ccccc2C1
inactive: A498 > 100 µM | BT-549 > 100 µM | COLO 205 > 100 µM | EKVX 27 µM | HCC 2998 > 100 µM | MDA-MB-231 > 100 µM | MDA-MB-435 > 100 µM | NCI-H226 32.2 µM | OVCAR-3 > 100 µM | OVCAR-4 > 100 µM | OVCAR-5 > 100 µM | OVCAR-8 > 100 µM | RPMI-8226 > 100 µM | SK-MEL-28 > 100 µM | SNB-19 > 100 µM | SW-620 > 100 µM | T47D 13 µM | U-251 > 100 µM | UACC-257 > 100 µM

O=C1/C(=C\c2cccc(Oc3ccccc3)c2)S(=O)(=O)C(c2ccccc2)N1Cc1ccccc1 (configuration not stated)
inactive: A498 19.3 µM | BT-549 29 µM | COLO 205 27 µM | EKVX 25.8 µM | HCC 2998 28.7 µM | MDA-MB-231 25.6 µM | MDA-MB-435 32.3 µM | OVCAR-3 13.8 µM | OVCAR-5 57 µM | OVCAR-8 17.8 µM | SK-MEL-28 29.8 µM | SK-MEL-5 18.5 µM | SNB-19 21.4 µM | SW-620 40.4 µM | T47D 32.8 µM | U-251 33.7 µM | UACC-257 22.9 µM

Cc1ccc(SC2C(=O)C3CC(OCc4ccccc4)C2(C)C3(C)C)cc1 (configuration not stated)
inactive: A498 > 100 µM | BT-549 > 100 µM | EKVX 64.7 µM | HCC 2998 > 100 µM | MDA-MB-231 > 100 µM | MDA-MB-435 > 100 µM | NCI-H226 > 100 µM | OVCAR-3 > 100 µM | OVCAR-5 > 100 µM | OVCAR-8 > 100 µM | SK-MEL-28 > 100 µM | SK-MEL-5 > 100 µM | SNB-19 > 100 µM | SW-620 > 100 µM | T47D 13.1 µM | U-251 39.3 µM

O=C(O)c1cccc(S(=O)(=O)NN2C(=O)CSC2c2ccccc2)c1 (configuration not stated)
inactive: A498 > 100 µM | BT-549 > 100 µM | COLO 205 > 100 µM | EKVX > 100 µM | HCC 2998 > 100 µM | MDA-MB-231 > 100 µM | MDA-MB-435 > 100 µM | NCI-H226 > 100 µM | OVCAR-3 > 100 µM | OVCAR-5 > 100 µM | OVCAR-8 > 100 µM | RPMI-8226 35.3 µM | SK-MEL-28 > 100 µM | SK-MEL-5 > 100 µM | SNB-19 > 100 µM | SW-620 > 100 µM | T47D > 100 µM | U-251 > 100 µM | UACC-257 > 100 µM

C=CCOC(=O)CCCCCCCCCCCCCCCOC(=O)c1c(CCC[C@@H](C)O[Si](C)(C)C(C)(C)C)nc([O-])[n+]2c1CC[C@H]2CC1(CC/C=C\[C@H](CC)O[Si](C(C)C)(C(C)C)C(C)C)OCCO1
inactive: A498 > 100 µM | BT-549 > 100 µM | COLO 205 > 100 µM | EKVX > 100 µM | HCC 2998 73.8 µM | MDA-MB-231 18.6 µM | MDA-MB-435 > 100 µM | NCI-H226 > 100 µM | OVCAR-3 50.8 µM | OVCAR-4 > 100 µM | OVCAR-5 30.1 µM | RPMI-8226 48.8 µM | SK-MEL-28 > 100 µM | SK-MEL-5 21.9 µM | SNB-19 80.2 µM | T47D > 100 µM | U-251 17.2 µM | UACC-257 > 100 µM

OC12CC3c4ccccc4NC3C3Oc4cccc5c4C31CCN(CC1CC1)C2C5 (configuration not stated)
inactive: A498 17.9 µM | BT-549 16.3 µM | COLO 205 20.9 µM | EKVX 16.7 µM | MDA-MB-231 17.9 µM | MDA-MB-435 17.9 µM | NCI-H226 26.1 µM | OVCAR-3 16.9 µM | OVCAR-4 20.7 µM | OVCAR-5 21.1 µM | OVCAR-8 16.4 µM | RPMI-8226 18.4 µM | SK-MEL-28 13.8 µM | SK-MEL-5 16.8 µM | SNB-19 18.2 µM | SW-620 11.8 µM | T47D 18.9 µM | U-251 17.3 µM | UACC-257 17.8 µM

OC(c1cccnc1)C(F)(F)c1nc2ccccc2o1 (configuration not stated)
inactive: A498 49.9 µM | BT-549 > 100 µM | COLO 205 > 100 µM | EKVX > 100 µM | HCC 2998 > 100 µM | MDA-MB-231 > 100 µM | MDA-MB-435 > 100 µM | NCI-H226 > 100 µM | OVCAR-4 > 100 µM | OVCAR-8 > 100 µM | RPMI-8226 > 100 µM | SK-MEL-28 > 100 µM | SK-MEL-5 > 100 µM | SNB-19 > 100 µM | SW-620 > 100 µM | T47D > 100 µM | U-251 > 100 µM | UACC-257 > 100 µM

CC(=O)OCC1OC(SC2=NC(=O)CS2)C(OC(C)=O)C(OC(C)=O)C1OC(C)=O (configuration not stated)
inactive: A498 > 100 µM | BT-549 93.5 µM and 62.7 µM | HCC 2998 > 100 µM | MDA-MB-231 > 100 µM | MDA-MB-435 > 100 µM | NCI-H226 > 100 µM | OVCAR-3 > 100 µM | OVCAR-5 > 100 µM | OVCAR-8 > 100 µM | RPMI-8226 51.8 µM and 27.4 µM | SK-MEL-28 > 100 µM | SK-MEL-5 > 100 µM | SNB-19 > 100 µM | SW-620 > 100 µM | T47D > 100 µM | UACC-257 > 100 µM

Source: ChEMBL document CHEMBL1201862, “PubChem BioAssay data set” (2004)
